Test [1] addresses T1, alpha 1B (h) (antagonist radioligand) (Homo sapiens, UniProt P35368).
T1 sequence (P35368 1-520): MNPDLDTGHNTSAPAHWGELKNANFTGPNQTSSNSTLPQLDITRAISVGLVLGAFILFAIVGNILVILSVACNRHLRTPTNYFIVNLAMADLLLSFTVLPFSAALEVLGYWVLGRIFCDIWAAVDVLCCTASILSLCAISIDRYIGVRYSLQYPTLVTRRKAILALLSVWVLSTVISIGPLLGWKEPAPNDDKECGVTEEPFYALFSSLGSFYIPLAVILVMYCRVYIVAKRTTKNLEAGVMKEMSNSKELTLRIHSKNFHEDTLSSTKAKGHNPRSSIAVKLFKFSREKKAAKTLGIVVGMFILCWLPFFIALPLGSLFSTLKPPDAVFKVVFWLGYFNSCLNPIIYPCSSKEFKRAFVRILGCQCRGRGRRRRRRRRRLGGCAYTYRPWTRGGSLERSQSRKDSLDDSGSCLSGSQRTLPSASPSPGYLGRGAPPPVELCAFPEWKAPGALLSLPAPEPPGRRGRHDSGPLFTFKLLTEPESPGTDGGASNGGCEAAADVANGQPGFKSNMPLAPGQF
As to the kind of experiment: Receptor protein binding studies, alpha 1B. An excerpt: (§1) The four 3,11b trans-dihydrotetrabenazine isomers (+)-α, (−)-α, (+)-β and (−)-β were subjected to specific binding assays to test their ability to bind to the receptors and transporter proteins described below. The results are set out in Table 1

Test [2] addresses T2, alpha 1D (h) (antagonist radioligand) (Homo sapiens, UniProt P25100).
T2 sequence (P25100 1-572): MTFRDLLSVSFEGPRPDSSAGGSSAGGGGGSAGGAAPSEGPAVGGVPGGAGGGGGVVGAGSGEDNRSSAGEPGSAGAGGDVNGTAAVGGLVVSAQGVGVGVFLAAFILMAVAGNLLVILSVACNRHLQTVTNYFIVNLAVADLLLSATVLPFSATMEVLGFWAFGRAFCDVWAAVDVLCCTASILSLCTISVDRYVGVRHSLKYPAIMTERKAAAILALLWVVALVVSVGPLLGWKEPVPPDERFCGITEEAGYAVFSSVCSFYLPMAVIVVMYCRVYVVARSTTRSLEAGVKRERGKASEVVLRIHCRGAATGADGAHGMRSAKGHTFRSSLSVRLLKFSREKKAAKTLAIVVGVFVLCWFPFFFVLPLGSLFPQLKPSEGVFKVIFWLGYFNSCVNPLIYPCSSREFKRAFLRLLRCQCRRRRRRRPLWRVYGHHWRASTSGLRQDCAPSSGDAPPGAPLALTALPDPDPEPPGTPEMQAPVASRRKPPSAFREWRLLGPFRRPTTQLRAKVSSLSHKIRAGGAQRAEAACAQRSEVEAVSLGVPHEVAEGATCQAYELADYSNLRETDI
The test is described as follows: Receptor protein binding studies, alpha 1D.
From the text: as §1

The target in test [3] is T3, alpha 2A (h) (antagonist radioligand) (Homo sapiens, UniProt P08913).
T3 sequence (P08913 1-465): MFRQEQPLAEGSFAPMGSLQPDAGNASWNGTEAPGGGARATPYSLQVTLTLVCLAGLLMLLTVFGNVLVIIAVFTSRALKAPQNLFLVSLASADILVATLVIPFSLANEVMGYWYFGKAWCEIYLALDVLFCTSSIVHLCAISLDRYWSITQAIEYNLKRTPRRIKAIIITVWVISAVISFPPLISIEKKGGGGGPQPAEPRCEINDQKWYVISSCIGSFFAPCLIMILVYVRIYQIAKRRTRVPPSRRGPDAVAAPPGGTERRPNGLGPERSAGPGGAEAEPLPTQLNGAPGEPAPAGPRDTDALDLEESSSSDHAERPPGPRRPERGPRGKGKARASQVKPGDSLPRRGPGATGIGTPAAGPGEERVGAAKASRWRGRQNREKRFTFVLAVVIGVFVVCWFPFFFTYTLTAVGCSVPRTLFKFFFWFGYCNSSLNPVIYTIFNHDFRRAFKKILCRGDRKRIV
The test is described as follows: Receptor protein binding studies, alpha 2A.
From the text: as §1

In test [4] the test system is I2 (antagonist radioligand). As to the kind of experiment: Receptor protein binding studies, I2.
From the text: as §1

Test [5] addresses mu (MOP) (h) (agonist radioligand) (Homo sapiens, UniProt P35372). The test is described as follows: Receptor protein binding studies, mu (MOP).
From the text: as §1

Test [6] has as its target T4, 5-HT2C (h) (agonist radioligand) (Homo sapiens, UniProt P28335).
T4 sequence (P28335 33-458): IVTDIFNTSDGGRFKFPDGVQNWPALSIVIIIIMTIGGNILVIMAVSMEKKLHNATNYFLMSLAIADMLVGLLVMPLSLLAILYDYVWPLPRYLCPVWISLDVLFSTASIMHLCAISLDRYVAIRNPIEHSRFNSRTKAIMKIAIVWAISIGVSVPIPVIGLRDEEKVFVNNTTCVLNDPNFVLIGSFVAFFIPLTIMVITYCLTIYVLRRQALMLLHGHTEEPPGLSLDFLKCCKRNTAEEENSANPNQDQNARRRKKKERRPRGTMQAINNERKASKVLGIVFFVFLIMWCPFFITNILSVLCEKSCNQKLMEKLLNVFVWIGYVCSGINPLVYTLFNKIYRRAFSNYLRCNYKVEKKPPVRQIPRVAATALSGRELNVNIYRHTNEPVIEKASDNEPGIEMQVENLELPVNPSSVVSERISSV
The test is described as follows: Receptor protein binding studies, 5-HT2C.
From the text: as §1

Another test has as its target 5-HT6 (h) (Homo sapiens, UniProt P50406). As to the kind of experiment: Receptor protein binding studies, 5-HT6.
From the text: as §1

Test [7] deals with Sigma 2 (h) (agonist radioligand) (Homo sapiens, UniProt Q5BJF2). The test is described as follows: Receptor protein binding studies, Sigma 2.
Sigma 2 (h) (agonist radioligand), sequence (Q5BJF2 whole entry): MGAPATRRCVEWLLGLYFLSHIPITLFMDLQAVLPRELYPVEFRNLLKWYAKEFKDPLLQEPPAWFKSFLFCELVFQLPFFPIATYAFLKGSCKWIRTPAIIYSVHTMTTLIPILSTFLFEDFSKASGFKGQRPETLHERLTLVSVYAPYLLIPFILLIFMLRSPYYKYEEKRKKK
From the text: as §1

This note sets out measurements from patent US11065232B2, “Dihydrotetrabenazine for the treatment of anxiety and psychoses” (ADEPTIO PHARMACEUTICALS LIMITED, priority 2017, dated 2021).

5-HT6 (h), sequence (P50406 whole entry): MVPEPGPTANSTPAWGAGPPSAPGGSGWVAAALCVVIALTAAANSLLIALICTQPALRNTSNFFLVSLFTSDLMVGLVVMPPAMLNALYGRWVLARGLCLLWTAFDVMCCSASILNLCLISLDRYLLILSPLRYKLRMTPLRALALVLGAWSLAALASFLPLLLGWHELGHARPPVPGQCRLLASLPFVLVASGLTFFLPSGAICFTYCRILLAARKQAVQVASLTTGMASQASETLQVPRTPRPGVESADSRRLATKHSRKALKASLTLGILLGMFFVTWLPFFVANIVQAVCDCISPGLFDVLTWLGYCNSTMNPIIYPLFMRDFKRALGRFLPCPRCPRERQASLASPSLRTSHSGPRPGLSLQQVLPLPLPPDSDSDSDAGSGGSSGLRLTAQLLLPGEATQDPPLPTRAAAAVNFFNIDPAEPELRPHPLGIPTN
mu (MOP) (h) (agonist radioligand), sequence (P35372 whole entry): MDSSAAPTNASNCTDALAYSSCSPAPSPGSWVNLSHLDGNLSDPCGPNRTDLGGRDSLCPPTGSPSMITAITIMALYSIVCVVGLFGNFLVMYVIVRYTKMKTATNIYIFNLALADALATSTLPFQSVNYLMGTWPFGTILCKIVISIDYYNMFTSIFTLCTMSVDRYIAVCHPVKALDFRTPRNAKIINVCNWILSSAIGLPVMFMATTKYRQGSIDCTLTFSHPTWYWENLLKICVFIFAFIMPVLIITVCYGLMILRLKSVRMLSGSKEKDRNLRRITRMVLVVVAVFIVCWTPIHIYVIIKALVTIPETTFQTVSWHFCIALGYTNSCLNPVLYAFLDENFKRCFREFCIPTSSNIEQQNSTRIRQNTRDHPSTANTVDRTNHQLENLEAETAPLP

Take (+)-β-dihydrotetrabenazine [(+)-Beta]: the “% Inhibition of specific binding” value in test [1] (CONC 1.0E−05 (unit not given)) is 1%; in test [1] (CONC 1.0E−06 (unit not given)), 3%; in test [2] (CONC 1.0E−05 (unit not given)) it was 20%; in test [2] (CONC 1.0E−06 (unit not given)), 18%; in test [3] (CONC 1.0E−05 (unit not given)), 11%; in test [3] (CONC 1.0E−06 (unit not given)), −1%. Besides, the “% Inhibition of specific binding” value in test [4] (CONC 1.0E−05 (unit not given)) is on record as 11%; in test [4] (CONC 1.0E−06 (unit not given)), 6%; in test [5] (CONC 1.0E−05 (unit not given)), 2%; in test [5] (CONC 1.0E−06 (unit not given)) it was 7%; in test [6] (CONC 1.0E−05 (unit not given)), −5%; in test [6] (CONC 1.0E−06 (unit not given)) it was 2%. Also, the “% Inhibition of specific binding” value on 5-HT6 (h) (CONC 1.0E−05 (unit not given)) was found to be 6%; on 5-HT6 (h) (CONC 1.0E−06 (unit not given)), 15%; in test [7] (CONC 1.0E−05 (unit not given)) it was 85%; in test [7] (CONC 1.0E−06 (unit not given)), 41%.

As for (−)-α-dihydrotetrabenazine [(−)-Alpha], the “% Inhibition of specific binding” value in test [1] (CONC 1.0E−05 (unit not given)) is 14%; in test [1] (CONC 1.0E−06 (unit not given)), 9%; in test [2] (CONC 1.0E−05 (unit not given)), 25%; in test [2] (CONC 1.0E−06 (unit not given)), 13%; in test [3] (CONC 1.0E−05 (unit not given)), 65%; in test [3] (CONC 1.0E−06 (unit not given)) it was 30%. In addition, the “% Inhibition of specific binding” value in test [4] (CONC 1.0E−05 (unit not given)) stood at 12%; in test [4] (CONC 1.0E−06 (unit not given)), 13%; in test [5] (CONC 1.0E−05 (unit not given)), 2%; in test [5] (CONC 1.0E−06 (unit not given)) it was 11%; in test [6] (CONC 1.0E−05 (unit not given)), 16%; in test [6] (CONC 1.0E−06 (unit not given)) it was 0%. In addition, the “% Inhibition of specific binding” value at 5-HT6 (h) (CONC 1.0E−05 (unit not given)) is 29%; on 5-HT6 (h) (CONC 1.0E−06 (unit not given)), 6%; in test [7] (CONC 1.0E−05 (unit not given)), 85%; in test [7] (CONC 1.0E−06 (unit not given)), 52%.

As for (+)-α-dihydrotetrabenazine [(+)-Alpha], the “% Inhibition of specific binding” value in test [1] (CONC 1.0E−05 (unit not given)) is 23%; in test [1] (CONC 1.0E−06 (unit not given)) it was −4%; in test [2] (CONC 1.0E−05 (unit not given)) it was −10%; in test [2] (CONC 1.0E−06 (unit not given)) it was 15%; in test [3] (CONC 1.0E−05 (unit not given)), 7%; in test [3] (CONC 1.0E−06 (unit not given)) it was 5%. In addition, the “% Inhibition of specific binding” value in test [4] (CONC 1.0E−05 (unit not given)) is on record as 20%; in test [4] (CONC 1.0E−06 (unit not given)) it was 1%; in test [5] (CONC 1.0E−05 (unit not given)), 5%; in test [5] (CONC 1.0E−06 (unit not given)) it was 0%; in test [6] (CONC 1.0E−05 (unit not given)) it was 3%; in test [6] (CONC 1.0E−06 (unit not given)), −8%. For the same substance, the “% Inhibition of specific binding” value at 5-HT6 (h) (CONC 1.0E−05 (unit not given)) was 35%; at 5-HT6 (h) (CONC 1.0E−06 (unit not given)), −1%; in test [7] (CONC 1.0E−05 (unit not given)), 70%; in test [7] (CONC 1.0E−06 (unit not given)) it was 34%.
